Here are results for 2 compounds from patent publication US10604741B2, “Compositions and methods for enhancing virus replication” (TURNSTONE LIMITED PARTNERSHIP, priority 2013, dated 2020).

The subject of assay [1] is VSVΔ51 in 786-0 cells. It is filed as cell-based, human.
Assay [2] has as its system VSVΔ51 in 786-0 cells. It is filed as cell-based, human. To be noted: 24 hours.

For `CCN(CC)CCCCNc1ncc2cc(-c3cc(OC)cc(OC)c3)c(NC(=O)NC(C)(C)C)nc2n1` [PD173074], the “effect on FGF2-induced enhancement of virus replication” value with VSVΔ51 in 786-0 cells [1] is recorded as “reduces FGF2-induced enhancement of virus replication”.
As for “FGF2: recombinant human FGF2 protein; amino acid sequence shown in SEQ ID NO: 9”, the “FGF2-enhancement of virus replication at different MOIs” value in the assay on VSVΔ51 in 786-0 cells [2] was “independent of the MOIs used”.
